How the values were obtained:
Assay in all cases: relative viability (nuclei count vs DMSO), 5 days (fraction); higher = more cells survive
XMD8-85 + Vorinostat = compound: CN1CCN(CC1)C2=CC(=C(C=C2)NC3=NC=C4C(=N3)N(C5=CC=CC=C5C(=O)N4C)C)OC [XMD8-85] + O=C(CCCCCCC(=O)Nc1ccccc1)NO [Vorinostat] (partner 1 µM)
Summary of the method: (§1)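 Values are medians from duplicate plates. Each reflects relative viability, defined as the nuclei count of treated wells over that of vehicle wells. Lung cancer cell lines in 1536-well plates were pin-tool dosed one day after seeding with one drug alone or with a fixed anchor-drug dose plus five library-drug doses (not always all listed) in √10 steps, then fixed, stained and imaged at 4× after 5 days.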

4EGI-1 + Luminespib = compound: O=C(O)C(Cc1ccccc1[N+](=O)[O-])=NNc1nc(-c2ccc(Cl)c(Cl)c2)cs1 (mixture of isomers) [4EGI-1] + CCNC(=O)c1noc(-c2cc(C(C)C)c(O)cc2O)c1-c1ccc(CN2CCOCC2)cc1 [Luminespib] (partner 0.01 µM)
Summary of the method: as §1

4EGI-1 + Tozasertib = compound: O=C(O)C(Cc1ccccc1[N+](=O)[O-])=NNc1nc(-c2ccc(Cl)c(Cl)c2)cs1 (mixture of isomers) [4EGI-1] + Cc1cc(Nc2cc(N3CCN(C)CC3)nc(Sc3ccc(NC(=O)C4CC4)cc3)n2)n[nH]1 [Tozasertib] (partner 0.1 µM)
Summary of the method: as §1

4EGI-1 + Olaparib = compound: O=C(O)C(Cc1ccccc1[N+](=O)[O-])=NNc1nc(-c2ccc(Cl)c(Cl)c2)cs1 (mixture of isomers) [4EGI-1] + O=C(c1cc(Cc2n[nH]c(=O)c3ccccc23)ccc1F)N1CCN(C(=O)C2CC2)CC1 [Olaparib] (partner 8 µM)
Summary of the method: as §1

Row | Cell Line | relative viability (XMD8-85 + Vorinostat; first compound 0.08 µM) | relative viability (XMD8-85 + Vorinostat; first compound 0.253 µM) | relative viability (XMD8-85 + Vorinostat; first compound 0.8 µM) | relative viability (XMD8-85 + Vorinostat; first compound 2.53 µM) | relative viability (XMD8-85 + Vorinostat; first compound 8 µM) | relative viability (4EGI-1 + Luminespib; first compound 0.5 µM) | relative viability (4EGI-1 + Luminespib; first compound 1.581 µM) | relative viability (4EGI-1 + Luminespib; first compound 5 µM) | relative viability (4EGI-1 + Luminespib; first compound 15.81 µM) | relative viability (4EGI-1 + Luminespib; first compound 50 µM) | relative viability (4EGI-1 + Tozasertib; first compound 0.5 µM) | relative viability (4EGI-1 + Tozasertib; first compound 1.581 µM) | relative viability (4EGI-1 + Tozasertib; first compound 5 µM) | relative viability (4EGI-1 + Tozasertib; first compound 15.81 µM) | relative viability (4EGI-1 + Tozasertib; first compound 50 µM) | relative viability (4EGI-1 + Olaparib; first compound 0.5 µM) | relative viability (4EGI-1 + Olaparib; first compound 1.581 µM) | relative viability (4EGI-1 + Olaparib; first compound 5 µM) | relative viability (4EGI-1 + Olaparib; first compound 15.81 µM) | relative viability (4EGI-1 + Olaparib; first compound 50 µM)
1 | NCI-H1734 | 0.788 | 0.84 | 0.826 | 0.768 | 0.56 | 0.203 | 0.193 | 0.22 | 0.2 | 0.177 | 0.263 | 0.27 | 0.263 | 0.288 | 0.214 | 0.642 | 0.512 | 0.695 | 0.435 | 0.244
2 | NCI-H1755 | 0.8 | 0.799 | 0.695 | 0.761 | 0.692 | 0.583 | 0.665 | 0.418 | 0.42 | 0.327 | 0.625 | 0.569 | 0.525 | 0.486 | 0.355 | 0.936 | 0.811 | 0.858 | 0.78 | 0.616
3 | NCI-H1793 |  | 0.665 | 0.63 | 0.916 | 0.497 | 0.246 | 0.246 | 0.197 | 0.176 | 0.139 | 0.318 | 0.364 | 0.391 | 0.247 | 0.2 | 1.02 | 1.16 | 1.13 | 0.504 | 0.234
4 | NCI-H1915 | 0.556 | 0.546 | 0.485 | 0.5 | 0.476 | 0.838 | 0.606 | 0.774 | 0.572 | 0.222 | 0.448 | 0.327 | 0.421 | 0.326 | 0.201 | 0.261 | 0.207 | 0.275 | 0.207 | 0.152
5 | NCI-H1944 | 0.581 |  | 0.544 | 0.594 | 0.493 | 0.717 |  | 0.774 | 0.633 | 0.561 | 0.262 |  | 0.241 | 0.192 | 0.202 | 0.506 |  | 0.391 | 0.308 | 0.298
6 | NCI-H1975 | 0.708 | 0.691 | 0.706 | 0.693 | 0.473 | 0.337 |  | 0.214 | 0.261 | 0.159 | 0.773 | 0.653 | 0.785 | 0.523 | 0.179 | 0.893 | 0.682 | 0.805 | 0.812 | 0.292
7 | NCI-H1993 | 0.559 | 0.783 | 0.839 | 0.825 | 0.766 | 1.03 | 0.786 | 0.801 | 0.637 | 0.496 | 0.552 | 0.627 | 0.563 | 0.511 | 0.492 | 1.11 | 0.965 | 1.21 | 0.967 | 0.522

From the supplement of paper PMC10307832
